Blank lines part the entries; values can stand above or below the molecule they belong to.
How the values were obtained:
[1] = Particle size of substituted aminoethanol-DNA complexes; type: physicochemical
Text: The component streams intersect in the mixer, whereby shearing and mixing of the DNA and polymer are induced, whereby particles of a complex of DNA and polymer are formed. The resulting preparations may be tested for mean particle size in nanometers and distribution through dynamic light scattering using, for example, a Coulter N4 Plus Submicron Particle Sizer (Coulter Corporation, Miami, Fla.). Mean particle sizes and standard deviaitons can be determined by the unimodal and Size Distribution Processing (SDP), or “intensity” methods.
In the above methods, a laser is directed through a preparation of the particles. Dynamic light scattering is measured as a result of the Brownian motion of the particles. The dynamic light scattering-which is measured then is correlated-to particle size. In the unimodal method, the size distribution is determined by placing the sizes of the particles on a Gaussian curve. In the SDP method, size distribution is determined by a FORTRAN program called CONTIN. Such methods also are described further in the Coulter N4 Plus Submicron Particle Sizer Reference Manual (November 1995).
(§1) Substituted aminoethanols lacking long chain hydrocarbon (aliphatic) substitutients were used to compact plasmid DNA into a colloidal dispersion in water. The size and zeta potential of the colloidal dispersions prepared were determined at different charge ratios for added cation (amine) to anion (DNA phosphate) and are shown in Table 1 and FIG. 4. The colloidal dispersions prepared permit compaction of the DNA into core complexes that are suitable for the invention.

[2] = Zeta potential of substituted aminoethanol-DNA complexes; type: physicochemical; conditions: in mV (unit assumed)
Experimental: as §1

CHO (Sst2) cells = assay: Transfection of CHO (Sst2) cells with peptide ligand complexes, luciferase; type: cell-based; conditions: polylysine core complexes; FIG. 26
Text: K14RGD peptide containing the amino acid sequence: KKK KKK KKK KKK KKS CRG DC (SEQ ID NO:5) with at least 90% purity was synthesized at Alpha Diagnostic International (San Antonio, Tex.). Peptide K14SMT contains the amino acid sequence: KKK KKK KKK KKK KKA d-FCY d-WKT CT (SEQ ID NO:6), and peptide K14MST contains the amino acid sequence KKK KKK KKK KKK KKA TDC RGE CF (SEQ ID NO:7). Both SMT and MST peptides were synthesized at Genemed Synthesis Inc (CA, South San Francisco) and oxidized to make circularized peptide. The peptide was purified to 90% purity by the provider. CHO (Sst+) cell line was obtained from Novartis Oncology (Dr. Friedrich Raulf). The cell line was selected to stable express human somatostatin receptor Sst2.
10000 CHO (Sst2) cells were cultured in a serum-containing medium with 0.4 mg/ml G418 for 12 hr before transfection in each well of a 96 well plate. The medium was changed to a serum free medium before transfection. Peptide was added to the cell at indicated amounts from 1 ug to 10 ug/well and incubated for 30 min before 0.5 ug pCIluc2 was added to the same medium to transfect the cells. Lipofectin at 4 ul was used as the control.
At 24 hr, luciferase activity was measured with Promega luciferase assay kit according to the recommended procedure.

cultured cells = assay: Transfection of cultured cells, luciferase activity; type: cell-based
Text: The gene delivery ability of substituted aminoethanols with long chain hydrocarbon (aliphatic) substitutients was studied by transfection of cultured cells and then in vivo by intravenous injection (Table 2 and 3). The substituted aminoethanols have two hydrophilic polar heads connected with one hydrophobic body, which was named bihead lipids. Bihead lipids are proposed to form a monolayer membrane.

CD-1 mice = assay: Luciferase expression in organs after intravenous injection of pCILuc complexes; type: in vivo; conditions: for Luciferase RLU/20 ul lysate heart / Luciferase RLU/20 ul lysate kidney / Luciferase RLU/20 ul lysate liver / Luciferase RLU/20 ul lysate lung / Luciferase RLU/20 ul lysate spleen: 40 μg pCILuc i.v., 5 h
Experimental: Substituted aminoethanols (cationic compounds) were prepared as described in Examples 1-34. Their gene delivery ability was studied in vivo by intravenous injection (Table 1 and 2) using a standard method. The preparations were administered via tail vein injection to mice and gene expression determined after 5 hours. Female CD-1 mice, 13-15 g, were purchased from Charles River Inc. Forty microgram of pCILuc complexed with GC lipids or GC lipid:Chol dispersion as indicated weight ratios. After 5 h, mice were sacrificed and organs were collected. Organs were homogenized in 0.5 ml of lysis buffer and 20 μl of supernatant was used for luciferase assay. Luciferase activity was represented as a mean of relative light unit (RLU) of four mice. The lipids were either used alone or combined with cholesterol and complexed with a luciferase reporter gene plasmid by a standard procedure at a range of weight and charge ratios. For the in vivo screen, 40 μg of pCILuc was complexed with the formulation and injected into the mice.
All compounds were evaluated for in vivo activity. Two critical factors were examined, formulation with or without cholesterol and the ratio of cationic lipid to DNA. Cholesterol was tested at 1:1 mole ratio of lipid:chol. The studies were performed with a dose of 40 μg of pCILuc complexed with cationic lipid or lipid: Chol (1:1 mole ratio) injected i.v. into CD-1 mice and then luciferase activity in different organs determined 5 h later. The first evaluation included all of 14 GC-lipids at weight ratios of 2 and 10 (GC lipid to DNA). It was performed by four separated experiments. Each time cationic liposome DOTAP:Chol was used as a standard control.
Measurements were repeated with lipids GC-030, GC-034 and GC-029 at wider weight ratios than the first experiment. Luciferase activity is represented as a mean of relative light unit (RLU) of four mice. WR means weight ratio of GC lipids to DNA. The transfection activity was represented by luciferase activity RLU/organ. […] The transfection activity increased with the increased weight ratio (GC lipids to DNA). Inclusion of cholesterol can change the biodistribution of gene expression in the different organs examined. […] However this function of cholesterol was not seen with GC-034.

Particle Size ([1]; charge ratio (+/−) 1.0): 77.6 nm
Particle Size ([1]; charge ratio (+/−) 1.5): 192.4 nm
Particle Size ([1]; charge ratio (+/−) 2.0): 293.3 nm
Particle Size ([1]; charge ratio (+/−) 3.0): 3946.4 nm
Particle Size ([1]; charge ratio (+/−) 4.0): 4304.7 nm
Zeta Potential ([2]; charge ratio (+/−) 0.5): −17.6
Zeta Potential ([2]; charge ratio (+/−) 1.0): −15.4
Zeta Potential ([2]; charge ratio (+/−) 1.5): −9.1
Zeta Potential ([2]; charge ratio (+/−) 2.0): −8.71
Zeta Potential ([2]; charge ratio (+/−) 3.0): −6.01
Zeta Potential ([2]; charge ratio (+/−) 4.0): −5.52
Molecule: C(CNCCC1CCCCN1)CNCCC1CCCCN1 (stereo not drawn) [CGP 61670A]

Particle Size ([1]; charge ratio (+/−) 0.5): 136 nm
Particle Size ([1]; charge ratio (+/−) 1.0): 62.6 nm
Particle Size ([1]; charge ratio (+/−) 1.5): 93.4 nm
Particle Size ([1]; charge ratio (+/−) 2.0): 573.5 nm
Particle Size ([1]; charge ratio (+/−) 3.0): 987.4 nm
Particle Size ([1]; charge ratio (+/−) 4.0): 4959 nm
Zeta Potential ([2]; charge ratio (+/−) 0.5): −40.9
Zeta Potential ([2]; charge ratio (+/−) 1.0): −8.72
Zeta Potential ([2]; charge ratio (+/−) 1.5): −7.67
Zeta Potential ([2]; charge ratio (+/−) 2.0): −7.08
Zeta Potential ([2]; charge ratio (+/−) 3.0): −5.03
Zeta Potential ([2]; charge ratio (+/−) 4.0): −4.87
Molecule: CCNCCCNCCCCNCCCNCC [CGP 41660A]

Particle Size ([1]; charge ratio (+/−) 0.5): 176.7 nm
Particle Size ([1]; charge ratio (+/−) 1.0): 77.6 nm
Particle Size ([1]; charge ratio (+/−) 1.5): 90.3 nm
Particle Size ([1]; charge ratio (+/−) 2.0): 206.8 nm
Particle Size ([1]; charge ratio (+/−) 3.0): 1941.8 nm
Particle Size ([1]; charge ratio (+/−) 4.0): 2526.8 nm
Zeta Potential ([2]; charge ratio (+/−) 0.5): −47.3
Zeta Potential ([2]; charge ratio (+/−) 1.0): −30
Zeta Potential ([2]; charge ratio (+/−) 1.5): −25
Zeta Potential ([2]; charge ratio (+/−) 2.0): −17.1
Zeta Potential ([2]; charge ratio (+/−) 3.0): −11.7
Zeta Potential ([2]; charge ratio (+/−) 4.0): −9.78
Molecule: CCN(CCCNCCCNCN(CC)C(=O)CN)C(=O)CN [CGP 61750A]

Molecule: KKK KKK KKK KKK KKA d-FCY d-WKT CT [SMT]
expression, effect of peptide ligand (CHO (Sst2) cells): increased expression

Molecule: CCCCCCCCCCCCC(O)CN(CCCN)CCCCCCCCCCCCCN(CCCN)CC(O)CCCCCCCCCCCC (stereo not drawn) [CGP47204A]
Luciferase activity Ave. RLU × 10000/well FBS(+) (cultured cells; charge ratio (+/−) 0.5): 11 RLU × 10000/well
Luciferase activity Ave. RLU × 10000/well FBS(−) (cultured cells; charge ratio (+/−) 0.5): 33 RLU × 10000/well
Luciferase activity Ave. RLU × 10000/well FBS(+) (cultured cells; charge ratio (+/−) 1): 821 RLU × 10000/well
Luciferase activity Ave. RLU × 10000/well FBS(−) (cultured cells; charge ratio (+/−) 1): 737 RLU × 10000/well
Luciferase activity Ave. RLU × 10000/well FBS(+) (cultured cells; charge ratio (+/−) 2): 8,079 RLU × 10000/well
Luciferase activity Ave. RLU × 10000/well FBS(−) (cultured cells; charge ratio (+/−) 2): 8,386 RLU × 10000/well
Luciferase activity Ave. RLU × 10000/well FBS(+) (cultured cells; charge ratio (+/−) 4): 13,088 RLU × 10000/well
Luciferase activity Ave. RLU × 10000/well FBS(−) (cultured cells; charge ratio (+/−) 4): 15,009 RLU × 10000/well
Luciferase activity Ave. RLU × 10000/well FBS(+) (cultured cells; charge ratio (+/−) 6): 22,694 RLU × 10000/well
Luciferase activity Ave. RLU × 10000/well FBS(−) (cultured cells; charge ratio (+/−) 6): 20,091 RLU × 10000/well
Luciferase activity Ave. RLU × 10000/well FBS(+) (cultured cells; charge ratio (+/−) 8): 21,644 RLU × 10000/well
Luciferase activity Ave. RLU × 10000/well FBS(−) (cultured cells; charge ratio (+/−) 8): 17,740 RLU × 10000/well
Luciferase RLU/20 ul lysate heart (CD-1 mice; CR 0.5): 38 RLU/20 ul lysate
Luciferase RLU/20 ul lysate kidney (CD-1 mice; CR 0.5): 39 RLU/20 ul lysate
Luciferase RLU/20 ul lysate liver (CD-1 mice; CR 0.5): 45 RLU/20 ul lysate
Luciferase RLU/20 ul lysate lung (CD-1 mice; CR 0.5): 44 RLU/20 ul lysate
Luciferase RLU/20 ul lysate spleen (CD-1 mice; CR 0.5): 80 RLU/20 ul lysate
Luciferase RLU/20 ul lysate heart (CD-1 mice; CR 1): 41 RLU/20 ul lysate
Luciferase RLU/20 ul lysate kidney (CD-1 mice; CR 1): 38 RLU/20 ul lysate
Luciferase RLU/20 ul lysate liver (CD-1 mice; CR 1): 53 RLU/20 ul lysate
Luciferase RLU/20 ul lysate lung (CD-1 mice; CR 1): 51 RLU/20 ul lysate
Luciferase RLU/20 ul lysate spleen (CD-1 mice; CR 1): 467 RLU/20 ul lysate
Luciferase RLU/20 ul lysate heart (CD-1 mice; CR 4): 129 RLU/20 ul lysate
Luciferase RLU/20 ul lysate kidney (CD-1 mice; CR 4): 386 RLU/20 ul lysate
Luciferase RLU/20 ul lysate liver (CD-1 mice; CR 4): 4,583 RLU/20 ul lysate
Luciferase RLU/20 ul lysate lung (CD-1 mice; CR 4): 5,009 RLU/20 ul lysate
Luciferase RLU/20 ul lysate spleen (CD-1 mice; CR 4): 5,594 RLU/20 ul lysate
Luciferase RLU/20 ul lysate heart (CD-1 mice; CR 10): 983 RLU/20 ul lysate
Luciferase RLU/20 ul lysate kidney (CD-1 mice; CR 10): 156 RLU/20 ul lysate
Luciferase RLU/20 ul lysate liver (CD-1 mice; CR 10): 3,270 RLU/20 ul lysate
Luciferase RLU/20 ul lysate lung (CD-1 mice; CR 10): 38,115 RLU/20 ul lysate
Luciferase RLU/20 ul lysate spleen (CD-1 mice; CR 10): 6,378 RLU/20 ul lysate
Luciferase RLU/20 ul lysate heart (CD-1 mice; CR 20): 96 RLU/20 ul lysate
Luciferase RLU/20 ul lysate kidney (CD-1 mice; CR 20): 113 RLU/20 ul lysate
Luciferase RLU/20 ul lysate liver (CD-1 mice; CR 20): 429 RLU/20 ul lysate
Luciferase RLU/20 ul lysate lung (CD-1 mice; CR 20): 3,258 RLU/20 ul lysate
Luciferase RLU/20 ul lysate spleen (CD-1 mice; CR 20): 779 RLU/20 ul lysate
expression in vivo by core complexes (CD-1 mice; mouse, in vivo): exhibit expression in vivo

Molecule: KKK KKK KKK KKK KKA TDC RGE CF [MST]
expression, effect of peptide ligand (CHO (Sst2) cells): not observed
